Literature values as cited in patent publication US11992527B2, “Extracellular vesicles for vaccine delivery” (LONZA SALES AG, priority 2019, dated 2024).

Assays:
[1] = tested on: LPA-induced histamine release; conditions: in mice
[2] = tested on: BALF collagen and protein; macrophage and lymphocyte infiltration induced by bleomycin
[3] = tested on: human A2058 melanoma cells; conditions: in vitro, read-out: IC50, inhibition of LPA-1-induced chemotaxis
[4] = tested on: mouse LPA-1/CHO cells; conditions: in vitro, read-out: IC50, inhibition of LPA-1-induced chemotaxis
[5] = in vivo
[6] = Phase 2 study (Palmer 2018)

SMILES	ED50, block of LPA-induced histamine release [1]	ED50, reduction of BALF collagen and protein ([2]; in lungs)	macrophage and lymphocyte infiltration induced by bleomycin ([2]; in mice)	IC50 [3]	IC50 [4]	oral bioavailability [5]	toxicity that led to early termination of the Phase 2 study [6]
Cc1noc(-c2ccc(-c3ccc(CC(=O)O)cc3)cc2)c1NC(=O)O[C@H](C)c1ccccc1 [AM095, 1,1′-Biphenyl]-4-acetic acid, 4′-[3-methyl-4-[[[(1R)-1-phenylethoxy]carbonyl]amino]-5-isoxazolyl[ ]-]	8.3 mg/kg	10 mg/kg	decrease both macrophage and lymphocyte infiltration	230 nM	780 nM	orally bioavailable	–
Cc1noc(-c2ccc(-c3ccc(C4(C(=O)O)CC4)cc3)cc2)c1NC(=O)O[C@H](C)c1ccccc1 [AM152, Cyclopropanecarboxylic acid, 1-[4′-[3-methyl-4-[[[(1R)-1-phenylethoxy]carbonyl]amino]-5-isoxazolyl][1,1′-biphenyl]-4-yl]-]	–	–	–	–	–	–	gall bladder toxicity and early signs of liver toxicity
